Assays:
[1] = target: T1, DOR (δ opioid receptor) (Homo sapiens, UniProt P41143); assay: DOR radioligand binding ([3H]-DADLE, HEK293 cell homogenates); settings: Percent inhibition at 10,000 nM; [3H]-DADLE
T1 construct: expressed in transfected cells; host or cells: HEK293

[2] = target: T2, KOR (κ opioid receptor) (Homo sapiens, UniProt P41145); assay: KOR radioligand binding ([3H]-U69593, HEK293 cell homogenates); settings: [3H]-U69593
T2 construct: expressed in transfected cells; host or cells: HEK293 (stably transfected)

[3] = target: T3, MOR (μ opioid receptor) (Homo sapiens, UniProt P35372); assay: MOR radioligand binding ([3H]-DAMGO, HEK293 cell homogenates); settings: [3H]-DAMGO
T3 construct: expressed in transfected cells; host or cells: HEK293

[4] = test system: BZR (benzodiazepine site of GABAAR); assay: GABAAR/BZR binding, rat brain homogenate with 3H-flunitrazepam; settings: rat brain homogenate, 3H-flunitrazepam
Method in brief: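 Primary screen at 10,000 nM; where displacement exceeded 50%, Ki came from nonlinear regression of concentration–response data (n=6). Radioligand was 3H-flunitrazepam at roughly Kd on rat brain homogenate, usually 90 min, room temperature, dark, with 10 μM reference compound for nonspecific binding, then filtration and scintillation counting.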

[5] = target: T4, human KOR (Homo sapiens, UniProt P41145); assay: BRET recruitment assay (GαoA) in HEK293T cells; type: cell-based; settings: for KOR agonism (in words): BRET recruitment assay
T4 construct: expressed in transfected cells; host or cells: HEK293T
Procedure: HEK293 cells were transfected with GαoA-RLuc, Gβ3, Gγ8-GFP2 and human KOR and treated with increasing concentrations of GL-I-30 or full agonist salvinorin A.
The BRET recruitment assays were performed in HEK293T cells according to previously reported procedures with minor modifications. Briefly, the cells were co-transfected overnight with GαoA-RLuc, Gβ3, Gγ8-GFP2 and human KOR receptor at a 1:1:1:1 ratio. The next day, cells were seeded (˜40,000 cells/well) into poly-L-Lysine coated 96-well white clear bottom cell culture plates in DMEM containing 1% dialyzed FBS. 24 hours later, the 96-well plates bottom were covered with white backing (PerkinElmer) and the culture medium was removed. Immediately, the cells were washed with 80 μL/well of assay buffer (1× HBSS, 20 mM HEPES, 1 mg/ml BSA, pH 7.4). Then the cells were treated with 80 μL of drugs in assay buffer for 10 min at room temperature, follow by addition of 20 μL/well of RLuc substrate and incubated for another 10 min. Plates were read in a Mithras LB940 reader for the RLuc Luminescence (400 nm) and GFP2 (515 nm) emission and the ratio of GFP2/RLuc (n=24) was analyzed by non-linear regression using GraphPad Prism 8.

[6] = test system: Swiss Webster mice; assay: Rotarod test; settings: 5 mg/kg
[7] = test system: Swiss Webster mice; assay: Formalin test; type: in vivo, mouse; settings: orally; GL-IV-03 10 mg/kg; ketoprofen 30 mg/kg
Procedure: Webster mice were treated orally four days in advance with indicated compounds and doses before the injection of 2% formalin in the right hind paw. Mice were evaluated during the first 5 min (phase 1) and after 20 minutes (phase 2) for 5 minutes in 5 seconds intervals Licking and biting the right hind paw during a 5 second interval was noted and combined as total time addressing the injected paw. Data is given as mean with SEM (n =8). ** indicate p<0.01 (unpaired t-test).
The antinociceptive effect of GL-IV-03 was investigated with the formalin test. Paw injections of formalin elicited a biphasic pain response separated in time (1-5 minutes and 20-60 minutes). […] Sensorimotor impairment and sedation were investigated with mice that were trained to balance on a rotating rod over a period of three minutes (rotarod). The amount of time that mice remained balanced on the rod after intraperitoneal (i.p.) and oral (p.o.) treatment with GL-IV-03 and MP-IV-010 is summarized in FIG. 7B-7C. […] The effect was similar to non-steroidal anti-inflammatory drug ketoprofen at 30 mg/kg. Sedation and inhibition of sensorimotor coordination can influence licking and biting pain behaviors, prompting rotarod studies for GL-IV-03 and MP-IV-010. […] In contrast to diazepam, a benzodiazepine with high affinity for the α1β2/3γ2 and other GABAAR subtypes, was sedating at 5 mg/kg.
Formalin test. […]

[8] = test system: GABAAR on immortalized mouse microglia; assay: Automated patch clamp, immortalized mouse microglia; type: cell-based; settings: 1 mM GABA, mouse cells
[9] = test system: GABAAR on immortalized human microglia; assay: Automated patch clamp, immortalized human microglia; type: cell-based; settings: 1 mM GABA, human cells
[10] = test system: Mouse microglia; assay: NO production (Griess assay), LPS/IFNγ-activated mouse microglia; type: cell-based; settings: for Inhibition of NO production (%) Mouse microglia 10 μM: 24 hours, 1 μM GABA, LPS/IFNγ
[11] = test system: HEPG2; assay: Viability assay (CellTiter-Glo), HEPG2; type: cell-based, human; settings: 120 μM, CellTiter-Glo
[12] = test system: Mouse microglia; assay: Cell viability (CellTiter-Glo), mouse microglia; type: cell-based; settings: 50 μM, CellTiter-Glo
Method in brief: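 Mouse microglia (1×10^6 cells/mL) activated with 50 ng/ml LPS plus 150 U/mL IFNγ, incubated with compounds ~24 h at 37° C. Viability of remaining cells read by CellTiter-Glo luminescence after supernatant removal for Griess NO assay; […].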

[13] = test system: RAW macrophages; assay: NO production (Griess assay), LPS/IFNγ-activated RAW264.7 macrophages; type: cell-based, mouse; settings: for Inhibition of NO production (%) RAW macrophages 10 μM: 24 hours, 1 μM GABA, LPS/IFNγ
[14] = test system: HEK293; assay: Viability assay (CellTiter-Glo), HEK293; type: cell-based, human; settings: 120 μM, CellTiter-Glo
[15] = test system: RAW macrophages; assay: Cell viability (CellTiter-Glo), RAW macrophages; type: cell-based, mouse; settings: CellTiter-Glo
[16] = Percent inhibition at 10,000 nM

T4 sequence (P41145 whole entry): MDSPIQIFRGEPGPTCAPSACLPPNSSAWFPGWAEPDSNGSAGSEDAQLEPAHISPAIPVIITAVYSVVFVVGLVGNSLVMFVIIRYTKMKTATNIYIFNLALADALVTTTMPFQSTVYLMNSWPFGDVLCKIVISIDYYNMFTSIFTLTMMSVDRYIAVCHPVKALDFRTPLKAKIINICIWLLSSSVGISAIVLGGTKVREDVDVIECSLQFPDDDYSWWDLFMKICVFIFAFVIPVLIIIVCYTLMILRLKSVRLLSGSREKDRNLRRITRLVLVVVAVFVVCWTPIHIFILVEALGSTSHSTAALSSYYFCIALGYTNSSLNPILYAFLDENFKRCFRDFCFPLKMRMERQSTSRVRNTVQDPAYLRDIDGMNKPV
T4 sequence (P09471 2-354 partner limits assumed): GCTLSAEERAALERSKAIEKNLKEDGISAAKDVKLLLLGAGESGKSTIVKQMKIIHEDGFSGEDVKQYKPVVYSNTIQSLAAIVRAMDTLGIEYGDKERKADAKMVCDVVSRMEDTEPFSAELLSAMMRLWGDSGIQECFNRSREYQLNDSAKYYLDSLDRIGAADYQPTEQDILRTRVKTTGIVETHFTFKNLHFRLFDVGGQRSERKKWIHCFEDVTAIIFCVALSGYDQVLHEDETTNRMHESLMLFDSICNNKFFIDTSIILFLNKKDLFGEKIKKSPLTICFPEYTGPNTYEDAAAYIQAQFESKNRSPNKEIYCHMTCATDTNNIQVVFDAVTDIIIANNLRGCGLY
T4 sequence (P16520 whole entry partner): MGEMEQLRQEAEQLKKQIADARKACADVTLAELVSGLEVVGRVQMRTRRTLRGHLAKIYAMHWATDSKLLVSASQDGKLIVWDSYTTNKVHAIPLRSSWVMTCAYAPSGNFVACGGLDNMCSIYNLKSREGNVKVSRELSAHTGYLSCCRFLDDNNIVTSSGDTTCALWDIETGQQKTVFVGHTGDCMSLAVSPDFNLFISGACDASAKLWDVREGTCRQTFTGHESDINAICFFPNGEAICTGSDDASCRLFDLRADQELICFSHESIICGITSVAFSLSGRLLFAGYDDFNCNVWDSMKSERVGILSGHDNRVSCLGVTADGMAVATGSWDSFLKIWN
T4 sequence (Q9UK08 1-67 partner limits assumed): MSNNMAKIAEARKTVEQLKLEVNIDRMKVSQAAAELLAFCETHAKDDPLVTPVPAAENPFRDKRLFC
T2 sequence (P41145 whole entry): as the sequence (P41145 whole entry) above
T3 sequence (P35372 whole entry, species assumed): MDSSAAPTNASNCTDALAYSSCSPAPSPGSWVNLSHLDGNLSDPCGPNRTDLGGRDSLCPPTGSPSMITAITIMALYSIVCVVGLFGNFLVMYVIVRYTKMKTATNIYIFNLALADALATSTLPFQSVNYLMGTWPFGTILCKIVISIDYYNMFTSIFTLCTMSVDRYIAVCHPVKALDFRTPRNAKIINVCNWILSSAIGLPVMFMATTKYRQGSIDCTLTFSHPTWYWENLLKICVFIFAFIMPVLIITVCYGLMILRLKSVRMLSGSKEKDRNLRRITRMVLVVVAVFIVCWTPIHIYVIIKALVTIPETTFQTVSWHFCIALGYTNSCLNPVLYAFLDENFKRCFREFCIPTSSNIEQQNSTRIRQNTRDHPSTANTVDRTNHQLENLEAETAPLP
T1 sequence (P41143 whole entry): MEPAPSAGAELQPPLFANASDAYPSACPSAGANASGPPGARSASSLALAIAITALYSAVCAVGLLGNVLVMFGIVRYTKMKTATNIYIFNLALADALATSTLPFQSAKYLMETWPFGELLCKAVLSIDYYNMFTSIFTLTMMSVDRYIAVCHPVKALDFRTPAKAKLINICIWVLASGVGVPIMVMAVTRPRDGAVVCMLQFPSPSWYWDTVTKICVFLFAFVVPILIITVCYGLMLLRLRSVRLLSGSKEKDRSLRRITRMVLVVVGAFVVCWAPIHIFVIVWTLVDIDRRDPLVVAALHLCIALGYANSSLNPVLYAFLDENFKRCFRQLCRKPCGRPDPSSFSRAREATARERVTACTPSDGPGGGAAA

| Structure (SMILES) | Cell viability (%) HEPG2 120 μM [11] [%] | Cell viability (%) Mouse microglia 50 μM [12] [%] | Cell viability (%) HEK293 120 μM [14] [%] | Cell viability (%) RAW macrophages 50 μM [15] [%] | Inhibition of NO production (%) RAW macrophages 10 μM [13] [%] | Inhibition of NO production (%) Mouse microglia 10 μM [10] [%] | further results |
| --- | --- | --- | --- | --- | --- | --- | --- |
| C#Cc1ccc2c(c1)C(c1ccccc1F)=NC(C)c1c(C(=O)OC(C)(C)C)ncn1-2 (stereo not shown) [GL-I-30] | – | – | – | – | – | – | DOR % [1]: 7%; KOR % [2, 16]: 95%; Ki ([2]; concentration-dependent, read-out: KOR (Ki)): 27 nM; MOR % [3, 16]: 54%; Ki ([3]; read-out: MOR affinity Ki): 1850 nM; BZR % [4, 16]: 96%; Ki [4]: 177 nM; KOR agonism (in words) [5]: full KOR agonism; KOR agonism (in words) ([5]; listed as GL-1-30): full KOR agonist; efficacy in comparison to full agonist salvinorin A ([5]; BRET, HEK293T cells): 100%; EC50 ([5]; BRET, HEK293T cells, read-out: EC50, recruitment of GαoA protein to KOR): 32.3 nM |
| CN1C(=O)CN=C(c2ccccc2)c2cc(Cl)ccc21 [diazepam, reference compound] | – | – | – | – | – | – | sedation (rotarod) [6]: sedating |
| CC(C(=O)O)c1cccc(C(=O)c2ccccc2)c1 (stereo not shown) [ketoprofen, reference compound] | – | – | – | – | – | – | antinociceptive effect, formalin test (phase 1 and 2) [7]: similar |
| NCCCC(=O)O [GABA] | – | – | – | – | – | – | maximum current response [8]: 1514 pA; maximum current response [9]: 1245 pA; NO production of activated microglia (in words) ([10]; dexamethasone 100 nM, GABA 1 μM, MP-IV-010 50 μM, GL-II-33 in the library screen): no effect |
| CC(C)c1noc(-c2ncn3c2[C@@H](C)N=C(c2ccccc2F)c2cc(Br)ccc2-3)n1 [GL-IV-01, (R)-5-(8-Bromo-6-(2-fluorophenyl)-4-methyl-4H-benzo[f]imidazo[1,5-a][1,4]diazepin-3-yl)-3-isopropyl-1,2,4-oxadiazole] | 100 ± 9 | 100 ± 9 | 72 ± 8 | 100 ± 9 | – | – | inhibition at 10 µM ([13]; Mus musculus, Macrophage, 24 h): 17 ± 7%; inhibition at 10 µM ([10]; Mus musculus, Microglia, 24 h): 56 ± 11% |
| C#Cc1ccc2c(c1)C(c1ccccc1)=NCc1c(C(=O)OCCCO)ncn1-2 [GL-I-48] | 100 ± 4 | 78 ± 5 | 65 ± 8 | 100 ± 12 | 4 ± 2 | 0 ± 4 | – |
| C#Cc1ccc2c(c1)C(c1ccccc1F)=NC(C)C(=O)N2C (stereo not shown) [GL-III-24] | 91 ± 12 | 98 ± 5 | 78 ± 6 | 100 ± 12 | 68 ± 8 | 67 ± 12 | – |
| CC1N=C(c2ccccc2F)c2cc(Cl)ccc2NC1=O (stereo not shown) [GL-III-52] | 81 ± 9 | 85 ± 8 | 73 ± 8 | 97 ± 8 | 2 ± 2 | 57 ± 11 | – |
| CC1N=C(c2ccccc2F)c2cc(Br)ccc2-n2cnc(C(=O)[O-])c21.[Na+] (stereo not shown) [GL-IV-18] | 80 ± 14 | 81 ± 10 | 88 ± 5 | 98 ± 5 | 10 ± 7 | 63 ± 9 | – |
